From US20080220056A1, “Treatment for liver disease” (UNIVERSITY OF SOUTHAMPTON, priority 2002, published 2008)

Legend:
[1] = test system: human hepatic stellate cells; assay: Hepatic stellate cell apoptosis by acridine orange staining and counting (cycloheximide or serum deprivation), human cells; format: cell-based; conditions: human hepatic stellate cells
Experimental: Human hepatic stellate cells were extracted from the margins of normal human liver resected for colonic metastatic disease as previously described (Iredale et al., Clin. Sci., (1995) 89: 75-81). Rat hepatic stellate cells were extracted from normal rat liver by Pronase and collagenase digestion and purified by centrifugal elutriation as described (Arthur et al., J. Clin. Invest., (1989) 84:1076-1085). Extracted hepatic stellate cells were cultured on plastic until they were activated to a myofibroblastic phenotype after 7 to 10 days. Human and rat hepatic stellate cells were used for experiments after activation in primary culture or before fourth passage. Cells were cultured in Dulbecco's modified Eagle's medium in the presence of 16% fetal calf serum and antibiotics.
Apoptosis of hepatic stellate cells was induced by absolute serum deprivation, cycloheximide treatment (Issa et al., Gut (2001) 48: S48-S57), or exposure to nerve growth factor as previously described (Trim et al., Am. J. Pathol., (2000) 156, 1235-1243). Hepatic stellate cells were cultured in 24-well tissue culture plates. […] Following a 4 hour incubation at 37° C., nuclear morphology was assessed by adding acridine orange to each well (final concentration 1 μg/ml) and observing the cells under blue fluorescence. The total number of apoptotic bodies was counted, and any apoptotic bodies floating in the supernatant were included by racking up the objective lens. The total number of cells per field was counted, and an apoptotic index was calculated. Each condition was performed in duplicate, and three high power fields were counted for each well. […] To examine for autocrine effects, hepatic stellate cells were incubated for 18 hours with azide-free polyclonal neutralizing antibodies to TIMP-1 and a nonimmune IgG control (Santa Cruz Biotechnology, Inc., Santa Cruz, Calif.), and responses were assessed by acridine orange staining and counting.
Apoptosis was assessed by acridine orange staining. […]

[2] = test system: caspase 3 activity in rat hepatic stellate cells; assay: Caspase 3 (Ac-DEVD-pNA cleavage) activity in rat hepatic stellate cells; format: cell-based; conditions: 1.5 μmol/L, three hours, versus DMSO control
Experimental: Hepatic stellate cells cultured in 100 mm diameter dishes (Greiner, Frickenhausen, Germany) were harvested and pelleted by centrifugation. The medium supernatant was discarded and the cell pellet was washed in 1 mL of ice-cooled phosphate buffered saline (PBS). Caspase 3 (DEVDase) activity was determined using a colorimetric CaspACE kit (Promega, Southampton, England) using the manufacturer's instructions.
Caspase 3 (Ac-DEVD-pNA cleavage) activity was then examined in control and gliotoxin-treated hepatic stellate cells. Culture activated rat hepatic stellate cells (14 days) in 100 mm diameter plates were treated with 0.05% (vol/vol) DMSO, 1.5 μmol/L gliotoxin, 20 μmol/L Z-VAD-FMK or 200 μmol/L chlorpromazine for three hours. The cells were then harvested for examination of caspase 3 activity as outlined in the materials and methods sections.

Compound | apoptosis of human HSC (cycloheximide 4 h or serum deprivation 18 h) [1] | increase in caspase 3 activity [2] [fold]
TIMP-1: recombinant tissue inhibitor of matrix metalloproteases 1 (Biogenesis) | identical antiapoptotic effects | 
CN1C(=O)[C@]23CC4=CC=C[C@H](O)[C@H]4N2C(=O)[C@@]1(CO)SS3 [gliotoxin] |  | 7.6
